Measured values reported in patent US9745328B2, “Flap modulators” (JANSSEN PHARMACEUTICA NV, priority 2013, dated 2017).
Where a name gives a salt, the structure may show the parent alone.

What follows are molecules tested against human FLAP (Homo sapiens (Human), UniProt P20292) (assay: FLAP binding assay (HTRF format)). Conditions: Table 6 (additional runs), human FLAP wild type.
Outline: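 Samples were run in duplicate on each of two plates and the plate results averaged. Read-out is the HTRF signal ratio.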

Chain of human FLAP (P20292 whole entry): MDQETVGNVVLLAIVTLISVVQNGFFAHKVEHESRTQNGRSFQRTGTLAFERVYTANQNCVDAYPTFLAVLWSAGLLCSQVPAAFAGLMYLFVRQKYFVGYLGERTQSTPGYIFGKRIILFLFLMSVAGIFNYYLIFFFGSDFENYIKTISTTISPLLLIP

Ki	SMILES
1.6 nM	CC(C)(C)NS(=O)(=O)c1ccccc1-c1ccc(-c2cnc(N)nc2)c(F)c1 [Example 305, 4′-(2-aminopyrimidin-5-yl)-N-(tert-butyl)-3′-fluoro[1,1′-biphenyl]-2-sulfonamide trifluoroacetic acid salt]
5.6 nM	CC(C)N(CCO)S(=O)(=O)c1ccccc1-c1ccc(-c2cnc(N)nc2)c(F)c1 [Example 261, 4′-(2-Aminopyrimidin-5-yl)-3′-fluoro-N-(2-hydroxyethyl)-N-(1-methylethyl)biphenyl-2-sulfonamide]
2.4 nM	Nc1cnc(-c2ccc(-c3ccccc3S(=O)(=O)NCCCCCO)cc2F)cn1 [Example 132, 4′-(5-Aminopyrazin-2-yl)-3′-fluoro-N-(5-hydroxypentyl)biphenyl-2-sulfonamide]
3.6 nM	N#CCCN(C1CC1)S(=O)(=O)c1ccccc1-c1ccc(-c2cnc(N)cn2)c(F)c1 [Example 172, 4′-(5-Aminopyrazin-2-yl)-N-(2-cyanoethyl)-N-cyclopropyl-3′-fluorobiphenyl-2-suifonamide]
0.4 nM	Nc1cnc(-c2ccc(-c3ccccc3S(=O)(=O)N[C@@H]3c4ccccc4C[C@@H]3O)cc2F)cn1 [Example 161, 4′-(5-aminopyrazin-2-yl)-3′-fluoro-N-((1R,2S)-2-hydroxy-2,3-dihydro-1H-inden-1-yl)-[1,1′-biphenyl]-2-sulfonamide]
56.8 nM	CC[C@@H](CO)NS(=O)(=O)c1ccccc1-c1ccc(-c2cnc(N)nc2)c(F)c1 [Example 248, 4′-(2-Aminopyrimidin-5-yl)-3′-fluoro-N-[(1S)-1-(hydroxymethyl)propyl]biphenyl-2-sulfonamide]
1.4 nM	COC[C@H](C)NS(=O)(=O)c1ccccc1-c1ccc(-c2cnc(N)cn2)c(F)c1 [Example 175, (S)-4′-(5-aminopyrazin-2-yl)-3′-fluoro-N-(1-methoxypropan-2-yl)-[1,1′-biphenyl]-2-sulfonamide]
1.7 nM	Nc1cnc(-c2ccc(-c3ccccc3S(=O)(=O)NCCc3ccccc3)cc2F)cn1 [Example 17, 4′-(5-Aminopyrazin-2-yl)-3′-fluoro-N-(2-phenylethyl)biphenyl-2-sulfonamide]
0.9 nM	O=S1(=O)CCN(S(=O)(=O)c2ccccc2-c2ccc(-c3cnc4c(c3)OCCN4)c(F)c2)CC1 [Example 392]
0.7 nM	Nc1cnc(-c2ccc(-c3ccccc3S(=O)(=O)N[C@H](CO)Cc3ccccc3)cc2F)cn1 [Example 116, (3),4-(5-aminopyrazin-2-yl)-3′-fluoro-N-(1-hydroxy-3-phenylpropan-2-yl)-[1,1′-biphenyl]-2-sulfonamide]
13.2 nM	NS(=O)(=O)c1ccccc1-c1ccc(-c2cnc3[nH]ccc3c2)c(F)c1 [Example 368, 3′-Fluoro-4′-(1H-pyrrolo[2,3-b]pyridin 5-yl)biphenyl-2-sulfonamide]
7.8 nM	Nc1ncc(-c2ccc(-c3ccccc3S(=O)(=O)N[C@H]3CCCC[C@H]3O)cc2F)cn1 (racemic) [Example 259, racemic (cis) 4′-(2-Aminopyrimidin-5-yl)-3′-fluoro-N-[(cis)-2-hydroxycyclohexyl]biphenyl-2-sulfonamide]
7.1 nM	Nc1cnc(-c2ccc(-c3ccccc3S(=O)(=O)C3CC3)cc2F)cn1 [Example 197, 5-[2′-(Cyclopropylsulfonyl)-3-fluorobiphenyl-4-yl]pyrazin-2-amine]
2.4 nM	CC(C)(NS(=O)(=O)c1ccccc1-c1ccc(-c2ccc(N)nc2)c(F)c1)C(F)(F)F [Example 350, 4′-(6-aminopyridin-3-yl)-3′-fluoro-N-(1,1,1-trifluoro-2-methylpropan-2-yl)-[1,1′-biphenyl]-2-sulfonamide]
3.3 nM	Nc1cnc(-c2ccc(-c3ccccc3Sc3cnccn3)cc2F)cn1 [Example 218, 5-[3-Fluoro-2′-(pyrazin-2-ylsulfanyl)biphenyl-4-yl]pyrazin-2′ amine hydrochloride]
2.1 nM	Nc1cnc(-c2ccc(-c3ccccc3S(=O)(=O)NC3Cc4ccccc4C3)cc2F)cn1 [Example 21, 4′-(5-Aminopyrazin-2-yl)-N-(2,3-dihydro-1H-inden-2-yl)-3′-fluorobiphenyl-2-sulfonamide]
0.5 nM	Nc1cnc(-c2ccc(-c3ccccc3S(=O)(=O)N[C@H]3CCCC[C@@H]3CO)cc2F)cn1 (racemic) [Example 121, racemic (trans)-4′-(5-Aminopyrazin-2-yl)-3′-fluoro-N-[2-(hydroxymethyl)cyclohexyl]biphenyl-2-sulfonamide]
1.3 nM	Nc1cnc(-c2ccc(-c3ccccc3S(=O)(=O)N[C@H]3CC[C@@H](N)CC3)cc2F)cn1 [Example 134, N-(4-Aminocyclohexyl)-4′-(5-aminopyrazin-2-yl)-3′-fluorobiphenyl-2-sulfonamide]
9.9 nM	Nc1ncc(-c2ccc(-c3ccccc3S(=O)(=O)N[C@@H](c3ccccc3)C(F)(F)F)cc2F)cn1 [Example 292, 4′-(2-Aminopyrimidin-5-yl)-3′-fluoro-N-[(1S)-2,2,2-trifluoro-1-phenylethyl]biphenyl-2-sulfonamide trifluoroacetic acid salt]
201 nM	CN1CCN([C@H]2CN(S(=O)(=O)c3ccccc3-c3ccc(-c4cnc(N)cn4)c(F)c3)C[C@@H]2O)CC1 (stereo in doubt) [Example 188, (3S,4S)-1-{[4′-(5-Aminopyrazin-2-yl)-3′-fluorobiphenyl-2-yl]sulfonyl}-4-(4-methylpiperazin-1-yl)pyrrolidin-3-ol]

Same assay, conditions: human FLAP wild type, Table 6 (additional runs)

Ki	SMILES
~2500 nM	CC(C)(C)NS(=O)(=O)c1ccccc1-c1ccc(-c2ccc3[nH]nc(N)c3c2)c(F)c1 [Example 597, 4′-(3-Amino-1H-indazol-5-yl)-N-tert-butyl-3′-fluorobiphenyl-2-sulfonamide]
~1370 nM	CC(C)(C)NS(=O)(=O)c1ccccc1-c1ccc(-c2cnc3ncccc3c2)c(F)c1 [Example 419, N-tert-Butyl-3′-fluoro-4′-(1,8-naphthyridin-3-yl)biphenyl-2-sulfonamide]
1 nM	CC(C)(C)NS(=O)(=O)c1ccccc1-c1cnc(-c2cnc(N)nc2)c(F)c1 [Example 675, 2-[6-(2-Aminopyrimidin-5-yl)-5-fluoropyridin-3-yl]-N-tert-butylbenzenesulfonamide]
1.5 nM	Nc1ccnc(Oc2cc(C(F)(F)F)ccc2-c2ccc(-c3cnc(N)nc3)c(F)c2)n1 [Example 559, 5-{2′-[(4-Aminopyrimidin-2-yl)oxy]-3-fluoro-4′-(trifluoromethyl)biphenyl-4-yl}pyrimidin-2-amine]
359 nM	CC(C)(C)NC(=O)c1ccccc1-c1ccc(-c2cnc(N)cn2)c(F)c1 [Example 501, 4′-(5-Aminopyrazin-2-yl)-N-tert-butyl-3′-fluorobiphenyl-2-carboxamide]
150 nM	C[C@H]1CN(C(=O)c2ccccc2-c2ccc(-c3cnc(N)cn3)c(F)c2)CCO1 [Example 776, 5-(3-Fluoro-2′-{[(2S)-2-methylmorpholin-4-yl]carbonyl}biphenyl-4-yl)pyrazin-2-amine]

Same assay, conditions: human FLAP wild type, a calculated value of 0.000 indicates Ki less than 1 nM

Ki	SMILES
< 1 nM	Nc1cnc(-c2ccc(-c3ccccc3S(=O)(=O)N[C@@H]3c4ccccc4C[C@@H]3O)cc2F)cn1 [Example 161, 4′-(5-aminopyrazin-2-yl)-3′-fluoro-N-((1R,2S)-2-hydroxy-2,3-dihydro-1H-inden-1-yl)-[1,1′-biphenyl]-2-sulfonamide]
< 1 nM	Nc1cnc(-c2ccc(-c3ccccc3S(=O)(=O)N[C@H]3CCCC[C@@H]3CO)cc2F)cn1 (racemic) [Example 121, racemic (trans)-4′-(5-Aminopyrazin-2-yl)-3′-fluoro-N-[2-(hydroxymethyl)cyclohexyl]biphenyl-2-sulfonamide]

These molecules were tested on leukotriene pathway in human whole blood (LTB4) (assay: Human whole blood assay (LTB4 levels after calcium ionophore A23187 stimulation)). Conditions: Homo sapiens, Table 6 (additional runs); human whole blood diluted 1:1, A23187 stimulation; read-out: Human Whole Blood LTB4 IC50 1:1.
Assay type: cell-based
Experimental: The ability of the compounds of the present invention to treat a FLAP-mediated disease and/or disorder, or associated symptoms or complications thereof, was determined using the following procedures. Binding assay data represent the average value obtained from two different assay plates, with samples run in duplicate on each plate. Human whole blood assay data represent a single replicate on an assay plate using whole blood from at least one healthy donor.
An in vitro cellular assay was performed using human whole blood collected in heparin-containing tubes, which was used to test the ability of compounds to modulate the leukotriene pathway in human whole blood. The blood was diluted 1:1 in RPMI medium, pre-incubated for 15 min at 37° Celsius with test compounds at various concentrations, and then stimulated with calcium ionophore, A23187 (7 μg/mL), for 30 min at 37° Celsius. The samples were then centrifuged and plasma was removed. The plasma was diluted in assay buffer and LTB4 levels were measured using a commercial kit (Enzo Life Sciences). The concentration of each compound that was required for half-maximal inhibition (modulation) of recombinant enzyme activity (IC50) was calculated by a 4-parameter equation using the program GraphPad Prism (GraphPad software).

IC50	SMILES
309 nM	Nc1cnc(-c2ccc(-c3ccccc3S(=O)(=O)N3CC[C@@H](N)C3)cc2F)cn1 [Example 92, (R)-5-(2′-((3-aminopyrrolidin-1-yl)sulfonyl)-3-fluoro-[1,1′-biphenyl]-4-yl)pyrazin-2-amine]
26.3 nM	C[C@@H](CO)NS(=O)(=O)c1ccccc1-c1ccc(-c2cnc(N)cn2)c(F)c1 [Example 25, (R)-4′-(5-Aminopyrazin-2-yl)-3′-fluoro-N-[(1R)-2-hydroxy-1-methylethyl]piphenyl-2-sulfonamicie]
161 nM	C[C@@H](CO)NS(=O)(=O)c1ccccc1-c1ccc(-c2ccc(N)nc2)c(F)c1 [Example 347, (S)-4′-(6-aminopyridin-3-yl)-3′-fluoro-N-(1-hydroxypropan-2-yl)-[1,1′-biphenyl]-2-sulfonamide]

Same assay, conditions: Homo sapiens, human whole blood diluted 1:1, A23187 stimulation; Table 6 (additional runs); read-out: Human Whole Blood LTB4 IC50 1:1

IC50	SMILES
26.9 nM	CC(C)S(=O)(=O)c1ncccc1-c1ccc(-c2cnc(N)cn2)c(F)c1 [Example 395, 5-(2-Fluoro-4-{2-[(1-methylethyl)sulfonyl]pyridin-3-yl}phenyl)pyrazin-2-amine]
160 nM	Nc1cnc(-c2ccc(-c3ccccc3C(=O)N3CCS(=O)(=O)CC3)cc2F)cn1 [Example 509, 5-{2′-[(1,1-Dioxidathiomorpholin-4-yl)carbonyl]-3-fluorobiphenyl-4-yl}pyrazin-2-amine]
140 nM	Nc1cnc(-c2ccc(-c3ccccc3-c3ccc(N)nn3)cc2F)cn1 [Example 863]
79.6 nM	Nc1ccnc(Oc2ccccc2-c2ccc(-c3cnc(N)nc3)c(F)c2)n1 [Example 529]
1800 nM	C[C@H](NC(=O)c1cc(C(F)(F)F)ccc1-c1ccc(-c2cnc(N)nc2)c(F)c1)C(F)(F)F [Example 788, 2-[4-(2-Aminopyrimidin-5-yl)-3-fluoro-phenyl]-5-(trifuoromethyl)-N-[(1S)-2,2,2-trifluoro-1-methyl-ethyl]enzamide]
> 1000 nM	CC(C)(C)C(=O)Nc1ncccc1-c1ccc(-c2cnc3[nH]ccc3c2)c(F)c1 [Example 802, N-{3-[3-Fluoro-4-(1H-pyrrolo[2,3-b]pyridin-5-yl)phenyl]pyridin-2-yl}-2,2-dimethylpropanamide]

Same assay, conditions: Homo sapiens, human whole blood diluted 1:1 in RPMI, A23187 stimulation, LTB4; read-out: Human Whole Blood LTB4 IC50 1:1

IC50	SMILES
161 nM	C[C@@H](CO)NS(=O)(=O)c1ccccc1-c1ccc(-c2ccc(N)nc2)c(F)c1 [Example 347, (S)-4′-(6-aminopyridin-3-yl)-3′-fluoro-N-(1-hydroxypropan-2-yl)-[1,1′-biphenyl]-2-sulfonamide]
